Results reported in ChEMBL document CHEMBL1781959, “Synthesis and in vitro antitumor activity of substituted quinazoline and quinoxaline derivatives: search for anticancer agent” (Eur J Med Chem, 2011).

Experiments:
Type in all cases: functional
OVCAR-5 = test: Anticancer activity against human OVCAR5 cells assessed as cell growth promotion at 10^-5 M after 48 hrs by SRB assay relative to control
DU-145 = test: Anticancer activity against human DU145 cells assessed as cell growth promotion at 10^-5 M after 48 hrs by SRB assay relative to control
CCRF-CEM = test: Anticancer activity against human CCRF-CEM cells assessed as cell growth promotion at 10^-5 M after 48 hrs by SRB assay relative to control
K562 = test: Anticancer activity against human K562 cells assessed as cell growth promotion at 10^-5 M after 48 hrs by SRB assay relative to control
MDA-MB-468 = test: Anticancer activity against human MDA-MB-468 cells assessed as cell growth promotion at 10^-5 M after 48 hrs by SRB assay relative to control
CAKI-1 = test: Anticancer activity against human Caki1 cells assessed as cell growth promotion at 10^-5 M after 48 hrs by SRB assay relative to control
NCI-H226 = test: Anticancer activity against human NCI-H226 cells assessed as cell growth promotion at 10^-5 M after 48 hrs by SRB assay relative to control
A498 = test: Anticancer activity against human A498 cells assessed as cell growth promotion at 10^-5 M after 48 hrs by SRB assay relative to control
SF-268 = test: Anticancer activity against human SF268 cells assessed as cell growth promotion at 10^-5 M after 48 hrs by SRB assay relative to control
OVCAR-8 = test: Anticancer activity against human OVCAR8 cells assessed as cell growth promotion at 10^-5 M after 48 hrs by SRB assay relative to control
[1] = Anticancer activity against human Hs 578T cells assessed as cell growth promotion at 10^-5 M after 48 hrs by SRB assay relative to control
MDA-MB-231 = test: Anticancer activity against human MDA-MB-231 cells assessed as cell growth promotion at 10^-5 M after 48 hrs by SRB assay relative to control
NCI-H460 = test: Anticancer activity against human NCI-H460 cells assessed as cell growth promotion at 10^-5 M after 48 hrs by SRB assay relative to control
EKVX = test: Anticancer activity against human EKVX cells assessed as cell growth promotion at 10^-5 M after 48 hrs by SRB assay relative to control
SNB-19 = test: Anticancer activity against human SNB19 cells assessed as cell growth promotion at 10^-5 M after 48 hrs by SRB assay relative to control
KM12 = test: Anticancer activity against human KM12 cells assessed as cell growth promotion at 10^-5 M after 48 hrs by SRB assay relative to control
UACC-257 = test: Anticancer activity against human UACC257 cells assessed as cell growth promotion at 10^-5 M after 48 hrs by SRB assay relative to control
HCT-15 = test: Anticancer activity against human HCT15 cells assessed as cell growth promotion at 10^-5 M after 48 hrs by SRB assay relative to control
SK-MEL-28 = test: Anticancer activity against human SK-MEL-28 cells assessed as cell growth promotion at 10^-5 M after 48 hrs by SRB assay relative to control
MDA-MB-435 = test: Anticancer activity against human MDA-MB-435 cells assessed as cell growth promotion at 10^-5 M after 48 hrs by SRB assay relative to control
T47D = test: Anticancer activity against human T47D cells assessed as cell growth promotion at 10^-5 M after 48 hrs by SRB assay relative to control
SK-OV-3 = test: Anticancer activity against human SKOV3 cells assessed as cell growth promotion at 10^-5 M after 48 hrs by SRB assay relative to control
SN12C = test: Anticancer activity against human SN12C cells assessed as cell growth promotion at 10^-5 M after 48 hrs by SRB assay relative to control
NCI/ADR-RES = test: Anticancer activity against human NCI/ADR-RES cells assessed as cell growth promotion at 10^-5 M after 48 hrs by SRB assay relative to control
SF-539 = test: Anticancer activity against human SF539 cells assessed as cell growth promotion at 10^-5 M after 48 hrs by SRB assay relative to control
OVCAR-3 = test: Anticancer activity against human OVCAR3 cells assessed as cell growth promotion at 10^-5 M after 48 hrs by SRB assay relative to control
PC-3 = test: Anticancer activity against human PC3 cells assessed as cell growth promotion at 10^-5 M after 48 hrs by SRB assay relative to control
SK-MEL-5 = test: Anticancer activity against human SK-MEL-5 cells assessed as cell growth promotion at 10^-5 M after 48 hrs by SRB assay relative to control
A549 = test: Anticancer activity against human A549 cells assessed as cell growth promotion at 10^-5 M after 48 hrs by SRB assay relative to control
RXF 393 = test: Anticancer activity against human RXF393 cells assessed as cell growth promotion at 10^-5 M after 48 hrs by SRB assay relative to control
MCF7 = test: Anticancer activity against human MCF7 cells assessed as cell growth promotion at 10^-5 M after 48 hrs by SRB assay relative to control
UO-31 = test: Anticancer activity against human UO31 cells assessed as cell growth promotion at 10^-5 M after 48 hrs by SRB assay relative to control
MOLT-4 = test: Anticancer activity against human MOLT4 cells assessed as cell growth promotion at 10^-5 M after 48 hrs by SRB assay relative to control
786-0 = test: Anticancer activity against human 786-0 cells assessed as cell growth promotion at 10^-5 M after 48 hrs by SRB assay relative to control
SR = test: Anticancer activity against human SR cells assessed as cell growth promotion at 10^-5 M after 48 hrs by SRB assay relative to control
TK-10 = test: Anticancer activity against human TK10 cells assessed as cell growth promotion at 10^-5 M after 48 hrs by SRB assay relative to control
SF-295 = test: Anticancer activity against human SF295 cells assessed as cell growth promotion at 10^-5 M after 48 hrs by SRB assay relative to control
Malme-3M = test: Anticancer activity against human MALME-3M cells assessed as cell growth promotion at 10^-5 M after 48 hrs by SRB assay relative to control
HCT-116 = test: Anticancer activity against human HCT116 cells assessed as cell growth promotion at 10^-5 M after 48 hrs by SRB assay relative to control
HCC 2998 = test: Anticancer activity against human HCC2998 cells assessed as cell growth promotion at 10^-5 M after 48 hrs by SRB assay relative to control

| SMILES | Activity (OVCAR-5) [%] | Activity (DU-145) [%] | Activity (CCRF-CEM) [%] | Activity (K562) [%] | Activity (MDA-MB-468) [%] | Activity (CAKI-1) [%] | Activity (NCI-H226) [%] | Activity (A498) [%] | Activity (SF-268) [%] | Activity (OVCAR-8) [%] | Activity (MDA-MB-231) [%] | Activity (NCI-H460) [%] | Activity (EKVX) [%] | Activity (SNB-19) [%] | Activity (KM12) [%] | Activity (UACC-257) [%] | Activity (HCT-15) [%] | Activity (SK-MEL-28) [%] | Activity (MDA-MB-435) [%] | Activity (T47D) [%] | further results |
| --- | --- | --- | --- | --- | --- | --- | --- | --- | --- | --- | --- | --- | --- | --- | --- | --- | --- | --- | --- | --- | --- |
| COc1ccc(OC)c(/C=C/c2nc3ccccc3nc2SCc2nc3ccccc3[nH]2)c1 | 101 | 98.54 | 81.59 | 90.78 | 98.24 | 83.86 | 87.18 | 95.89 | 99.47 | 92.09 | 96.56 | 94.48 | 81.9 | 98.9 | 97.42 | 111 | 103 | 118 | 105 | 63.43 | Activity [1]: 87.08%; Activity (SK-OV-3): 85.7%; Activity (SN12C): 88.34%; Activity (NCI/ADR-RES): 95.82%; Activity (SF-539): 94.92%; Activity (OVCAR-3): 107%; Activity (PC-3): 113%; Activity (SK-MEL-5): 75.46%; Activity (A549): 90.64%; Activity (RXF 393): 87%; Activity (MCF7): 82.73%; Activity (UO-31): 60.33%; Activity (MOLT-4): 69.92%; Activity (786-0): 90.52%; Activity (SR): 81.4%; Activity (TK-10): 56.15%; Activity (SF-295): 110%; Activity (Malme-3M): 108%; Activity (HCT-116): 73.92% |
| O=c1c2ccccc2nc(-c2ccco2)n1O | 100.49 | 122.21 | 98.16 | 105.54 | 115.34 | 102.81 | 97.88 | 97.65 | 106.3 | 110.28 | 93.48 | 108.52 | 109.13 | 101.58 | 110.22 | 112.27 | 108.36 | 109.58 | 124.51 | 106.81 | Activity (HCC 2998): 119.5%; Activity (SK-OV-3): 106.84%; Activity (SN12C): 98.6%; Activity (NCI/ADR-RES): 112.3%; Activity (SF-539): 95.42%; Activity (OVCAR-3): 114.53%; Activity (PC-3): 91.05%; Activity (SK-MEL-5): 111.56%; Activity (A549): 113.82%; Activity (RXF 393): 117.15%; Activity (MCF7): 103.51%; Activity (UO-31): 68.92%; Activity (MOLT-4): 101.31%; Activity (786-0): 104.23%; Activity (SR): 94.7%; Activity (TK-10): 98.03%; Activity (SF-295): 117.66%; Activity (Malme-3M): 122.97%; Activity (HCT-116): 105.94% |
